Key:
[1] = system: Hep G2 cells; assay type: in vitro ADME, human; conditions: human, 24 h
Excerpt: Mitochondrial oxysterols, including cholestenoic acid (CA), 25-hydroxycholesterol (25HC), and 27-hydroxycholesterol (27HC), are potent regulators involved in important biological events such as lipid metabolism and inflammatory responses. However, their intracellular catabolic pathways have not been fully explored. In this study, we investigated the metabolic pathways of these oxysterols and their roles in the communication between hepatocytes and macrophages.

[2] = system: NAFLD mouse model; test: western diet-induced NAFLD mice model, health and serum enzymes; assay type: in vivo; conditions: 10 mg/kg CA injection, two weeks
Excerpt: The animal studies were approved by the Institutional Animal Care and Use Committee of McGuire Veterans Affairs Medical Center and conducted in accordance with the Declaration of Helsinki, the Guide for the Care and Use of Laboratory Animals, and all applicable regulations. In this study, a western diet-induced nonalcoholic fatty liver disease (NAFLD) mice model was used. To create the model, eight-week-old C57BL/6J female mice were purchased from the Jackson Laboratory and fed a western diet (TD.88137, Envigo) along with high glucose/fructose water (WDSW) containing 23.1 g/L fructose and 18.9 g/L glucose for 12 weeks. After establishing the model, the mice were separated into three groups based on their weight. For the control mice in each group, they received intravenous injection (IV) with vehicle (DMSO). In contrast, the treatment group mice were intravenously injected with 10 mg/kg of CA (dissolved in DMSO) with a total volume of less than 100 μl. During the treatment period, injections were administered every two days. All mice were housed under identical conditions in an aseptic facility with a 12-hour light/12-hour dark cycle and provided with free access to water and food (WDSW). Before scarification, the mice fasted overnight. Blood samples were collected, and the serum enzymatic activities of alkaline phosphatase (ALK), alanine aminotransferase (ALT), and aspartate aminotransferase (AST) were measured in the clinical laboratory at McGuire Veterans Affairs Medical Center.

[3] = system: HepG-2 cells; test: RT-qPCR of genes of lipid metabolism and calcium signaling; assay type: cell-based, human; conditions: concentration and time dependent
Experimental: After culturing HepG-2 cells in DMEM medium with HG for 72 hours followed by treating with 20 μM CA for 0, 3, 6, 12, and 24 hours, genomic DNA from 5×10^7 cells were extracted using QIAamp® DNA Mini Kit (QIAGEN, Hilden, Germany). Each sample, 6 μg, was sent to CD Genomics Co., Ltd (New York, USA) for analysis of WGBS. Total RNA was isolated using the Promega SV total RNA isolation system (Madison, WI, USA) with DNase treatment. Each sample, 2 μg, were sent to CD Genomics Co., Ltd (New York, USA) for analysis of RNA sequencing. The same samples, 2 μg, was used for the first-strand cDNA synthesis as recommended by the manufacturer (Invitrogen, Carlsbad, CA). RT-qPCR was performed using SYBR Green as the indicator on ABI 7500 Fast Real-Time PCR System (Applied Biosystems, Foster City, CA). Amplifications of j-actin or GAPDH were used as internal controls. Relative messenger RNA (mRNA) expression was quantified with the comparative cycle threshold (Ct) method using a sutiable primer set and was expressed as 2-ΔΔCt as described previously.

[4] = system: HepG-2 cells; test: HepG-2 cell death; assay type: cell-based, human
[5] = system: AMPK; test: Western blot analysis of AMPK protein; assay type: cell-based, human; conditions: HepG-2, high glucose media, 20 μM CA, 24 hours
Experimental: Specific proteins were analyzed by western blot. The proteins were extracted using M-PER™ Mammalian Protein Extraction Reagents (Fisher Scientific). For each sample, 20 μg of proteins were separated on 8%-12% SDS polyacrylamide gel electrophoresis (SDS-PAGE) gels. Electrophoresis was performed at 100V for 15 min and 200V for another 25 min in a Bio-Rad mini-gel system. After electrophoresis, samples were transferred onto a polyvinylidene difluoride (PVDF) membrane at 30V for 50 min. The specific proteins on the membrane were detected by incubation with anti-AMPKα1/2 (Santa Cruz Biotechnologies) primary antibody at 4° C. overnight, followed by further incubation with an appropriate horseradish peroxidase (HRP)-conjugated secondary antibody (Bio-Rad) at room temperature for 1 hr. Each positive band was quantified by Advanced Image Data Analyzer (Aida, Straubenhardt, Germany).

[6] = system: HepG-2 cells; test: Untargeted lipidomics analysis; assay type: cell-based, human
Experimental: HepG-2 cells were cultured in DMEM medium with HG for 72 hours followed by treating with 20 μM CA for 24, 48, and 72 hours. The cells were harvested with 500 μl 1× PBS, and sent to Creative Proteomics Co., Ltd (New York, USA) for untargeted lipidomics analysis. Samples were thawed and 1.5 mL chloroform:methanol (2:1, v/v) added to sample, vortexed for 1 min, and followed by sonication for 30 min, 4° C. Then centrifuge 10 min at 12,000 rpm, 4° C., transfer the lower phase to a new tube, dry under the nitrogen. The dried extract with 200 μl of isopropyl alcohol:methanol (1:1, v/v); add 5 μl LPC (12:0) for internal standard. Finally, centrifuge 10 min at 12,000 rpm, 4° C.; transfer the supernatant for LC-MS analysis. Separation is performed by UltiMate™ 3000 LC combined with Q Exactive™ MS (Thermo) and screened with ESI-MS. The LC system is comprised of ACQUITY UPLC® BEH C18 (100×2.1 mm×1.7 μm) with UltiMate™ 3000 LC. The mobile phase is composed of solvent A (60% ACN+40% H2O+10 mM HCOONH4) and solvent B (10% ACN+90% isopropyl alcohol+10 mM HCOONH4) with a gradient elution (0-10.5 min, 30%-100% B; 10.5 min-12.5 min, 100% B; 12.5-12.51 min, 100%-30% B; 12.51-16.0 min, 30% B). The flow rate of the mobile phase is 0.3-1 mL·min. The column temperature is maintained at 40° C., and the sample manager temperature is set at 4° C. Mass spectrometry parameters in ESI+ and ESI− mode are listed as follows: ESI+: Heater Temp 300° C.; Sheath Gas Flow rate, 45 arb; Aux Gas Flow Rate, 15 arb; Sweep Gas Flow Rate, larb; spray voltage, 3.0 KV; Capillary Temp, 350° C.; S-Lens RF Level, 30%. ESI−: Heater Temp 300° C., Sheath Gas Flow rate, 45 arb; Aux Gas Flow Rate, 15 arb; Sweep Gas Flow Rate, larb; spray voltage, 3.2 KV; Capillary Temp, 350° C.; S-Lens RF Level, 60%.

With `CC(CCC[C@@H](C)[C@H]1CC[C@H]2[C@@H]3CC=C4C[C@@H](O)CC[C@]4(C)[C@H]3CC[C@]12C)C(=O)O` (stereo partly drawn) [CA, 3β-hydroxy-5-cholestenoic acid] the “maximum of novel molecular ion m/z 495 (CA3S) formed from CA” value [1] was 90%, the “in vivo toxicity, health of mice” value [2] was “remained in good health” and the “serum activity of ALK” value [2] was “significant decrease”. For the same compound, the “serum activity of ALT” value [2] was “significant decrease”, the “levels of mRNA encoding FAS” value ([3]; 0-20 μM CA 6 hours) was “decreased” and the “levels of mRNA encoding HMGR” value ([3]; 0-20 μM CA 6 hours) was “decreased”. The “levels of mRNA encoding PCSK9” value ([3]; 0-20 μM CA 6 hours) was “decreased”, the “expression of CACNA1D” value [3] was “up-regulated” and the “expression of CACNA1H” value [3] was “up-regulated”. The “expression of CAMK2B” value [3] was “up-regulated”, the HepG-2 cell death [4] was “induces HepG-2 cell death” and the “protein levels of AMPK” value [5] was “significantly increased”. For the same compound, the “average decreased percentage of ChE (cholesterol ester)” value ([6]; 20 μM CA, 48 hours) was 47%, the “average decreased percentage of DG (Diglycerides)” value ([6]; 20 μM CA, 48 hours) was 76% and the “average decreased percentage of FA” value ([6]; 20 μM CA, 48 hours) was 65%. The “average decreased percentage of MG (Monoglycerides)” value ([6]; 20 μM CA, 48 hours) was 53%, the “average decreased percentage of TG (Triglycerides)” value ([6]; 20 μM CA, 48 hours) was 70% and the “lipid levels (GP, SP, GL, ST, FA)” value ([6]; HG medium 72 hours, then 20 μM CA) was “significantly decreased”.
